This is an account of results in patent US12622910B2, “Inhibitors of Bruton's tyrosine kinase and methods of their use” (Janssen Pharmaceutica NV, priority 2021, dated 2026).

Bounds are passed on as bounds.

The nature of data set [1]: Plasma protein binding, equilibrium dialysis. It is filed as in vitro ADME, human. The method, then:
(§1) Additional Data on Preclinical PK Profile—Protein binding of the compound of Formula (III) was studied using an equilibrium dialysis method in plasma from human, cynomolgus monkey, beagle dog, Sprague Dawley rat, CD-1 mouse, and guinea pig at 0.25, 2.5, and 25 μM. […] In human and monkey, the plasma protein binding was concentration dependent. […] Free fraction of the compound of Formula (III) in liver microsomes from various species ranged from 75.1% to 87.9% at 0.25 mg/mL and from 58.9% to 86.5% at 1.0 mg/mL (Table 17). […] In hepatocytes, the compound of Formula (III) turnover followed a similar trend, with T1/2 ranging from 75.3 minutes in monkey to 278.1 minutes in human.
In general terms: In equilibrium dialysis only unbound substance equilibrates across the membrane.

Data set [2] in a line: Blood-to-plasma concentration ratio. Type of data set: in vitro ADME. As to conditions: rat, fresh blood.
Data set [3] can be described thus: Metabolic stability in liver microsomes. Type of data set: in vitro ADME, dog. How it is done:
as §1
A general note: Microsomes from liver hold many membrane-bound enzymes, among them those of drug oxidation.

Data set [4] is described as follows: Metabolic stability in hepatocytes. It is filed as in vitro ADME, monkey. The method, then:
as §1

The test system of the next data set is AhR. Nature of the data set: Puracyp DRE luciferase-reporter cell line (CYP1A2 induction). Type of data set: in vitro ADME. How it is done: To assess the potential of the compound of Formula (III) to be a time-dependent inhibitor of CYP3A, human liver microsomes were preincubated for 30 minutes at 37° C. with the compound of Formula (III) at concentrations up to 10 μM, and CYP3A activity was measured using testosterone as a probe substrate. […] The potential of the compound of Formula (III) to induce CYPs at the transcriptional level was assessed using Puracyp™ DPX2 (CYP3A4, PXR) and DRE (CYP1A2, AhR) luciferase-reporter cell lines; rifampicin and omeprazole were used as positive controls for CYP3A and CYP1A induction, respectively. The activation by the compound of Formula (III) was <20% of positive control values for PXR (6.6% and 14.1% at 1 and 10 μM change, respectively) or AhR (0.1% and 0.3% change, respectively). […] Potential involvement of various CYP isoforms in the metabolism of the compound of Formula (III) was investigated by measuring the parent compound remaining after 1-hour incubation with the compound of Formula (III) (1 μM) with recombinant CYPs (rCYPs) at 100 pmol P450/mL in the presence of 1 mM NADPH at 37° C. The only isozyme that produced notable the compound of Formula (III) turnover with <1% parent remaining after 1-hour incubation was CYP3A4 (FIG. 24). […]

The test system of another data set is CYP3A. Put plainly: CYP induction in plated human hepatocytes, midazolam probe. Type of data set: in vitro ADME. As to conditions: 48 hours.
For data set [5], the system named is OCI-LY3 (Myd88/CARD11/A20 mutant). Nature of the data set: Antiproliferative activity, 8 days. It is filed as cell-based, human. The method, then:
In Vitro Activity in DLBCL Cell Lines—NFκB signaling regulates the secretion of multiple cytokines, including interleukin (IL)-6 and IL-10. Secretion of IL-6 and -10 by ABC-DLBCL OCI-LY-10 cells was measured using a MesoScale assay. […] To determine the anti-proliferative activity of the compound of formula (III), several ABC-DLBCL cell lines—OCI-LY-3, OCI-LY-10, TMD8, and HBL-1—were treated for 8 days. […] The OCI-LY-3 cell line, which harbors a CARD11 mutation downstream of BTK in the NF-κB signaling pathway, was completely insensitive to the compound of Formula (III) up to 2 μM. In 2 experiments, OCI-LY-3 cells were insensitive to the compound of Formula (III) at all concentrations up to 10 μM.

Regarding `C=CC(=O)N[C@H]1CCC[C@H]1NC(=O)c1sc2nccc3c2c1NC(=O)N3c1cnc(CC(C)C)cc1C` (atropisomer, axis not shown) [compound of Formula (III), N-((1R,2S)-2-Acrylamidocyclopentyl)-5-(S)-(6-isobutyl-4-methylpyridin-3-yl)-4-oxo-4,5-dihydro-3H-1-thia-3,5,8-triazaacenaphthylene-2-carboxamide], the “% Free in plasma” value in data set [1] (2.5 μM) is reported as 3.1%. In addition, in data set [1] (human, plasma, 0.25 μM, read-out: % Free in plasma), the fraction unbound at 0.25 μM turned out to be 0.0169. Also, the fraction unbound at 25 μM in data set [1] (human, plasma, 25 μM, read-out: % Free in plasma) is 0.0463. Moreover, the blood plasma ratio at 1 μM in data set [2] came out at 1.37. Further, the “Extraction Ratio, liver microsomes” value in data set [3] (Dog) turned out to be 0.65. The same compound registered a microsomal CLint in data set [3] (dog, liver microsomes) of 40.6 µL/min/mg. Also, the half-life in data set [3] (dog, liver microsomes, read-out: T1/2, liver microsomes) worked out at 17.1 min; in data set [4] (monkey, hepatocytes, read-out: T1/2, hepatocytes), 75.3 min. Moreover, in data set [4], the “Extraction Ratio, hepatocytes” value is on record as 0.78. The hepatocyte CLint in data set [4] (monkey, hepatocytes) came to 66.3 µL/min/1e6 cells. Further, the “AhR activation, % of positive control (omeprazole)” value was 0.1% in the data set on AhR (1 μM) and 0.3% in the data set with AhR (10 μM). For the same compound, the “change in CYP3A enzyme activity” value in the data set on CYP3A (1 μM) was −0.8%; in the data set on CYP3A (10 μM) it was 0.8%. Moreover, in data set [5] (2 experiments), the “sensitivity at all concentrations up to 10 μM” value was “insensitive”. The compound further returned a concentration for half-maximal inhibition (IC50) in data set [5] (Homo sapiens, OCI-Ly3, 192 h, 8 days, n = 4) of more than 2000 nM.

Usually microsomal CLint stands for the rate of metabolic loss divided by the concentration. A low value points to greater metabolic stability. Broadly, the hepatocyte CLint is a measure of how fast metabolising enzymes remove a compound, apart from limits set by blood flow. Usually IC50 stands for the concentration that gives 50% inhibition.
